{"source": "patent US12578350B2", "about": "“System and method for coagulation and platelet function related data collection and analysis” (FloBio LLC, priority 2024, dated 2026)", "test_system": "fibrin accumulation", "assay": "Microfluidic whole blood flow assay over collagen/tissue factor reaction zone, fibrin signal, drug spiked in vitro", "format": "cell-based, human", "settings": "blood sample treated with different doses, in relation to HBS control; 37° C. and 21° C.; FIGS. 17C-17D", "text": "The drug in question can be mixed with a small bolus of patient blood outside the device (in vitro), and the drug spiked blood then analyzed on the system. […] Fresh whole blood (used within minutes of venous draw), AF594 fibrinogen (fibrinogen from human plasma, Alexa FluorTM 594 conjugate) and platelet MCA2588A488 (mouse anti-human CD61, Alexa FluorTM 488 conjugate) can be added to the device 100 and the direct fluorescence signals can be analyzed. […] The result is the production of direct fluorescent signals in green (platelets) and red (fibrin) where the measured fluorescent intensity (FI) directly correlates with the accumulation of platelets and fibrin. The fluorescent signal intensity can be directly measured at each clot site over time to produce clot response curves for both fibrin and platelets. Fluorescence signal (intensity) can be extracted for each clot and plotted for each assay condition. Two signals are generated in the test as fluorescence intensity (FI) for fibrin and platelets accumulating in the region of interest on the device. […] The optimal time at which to select data for analyses is generally determined to be the time of the maximum rate of stable signal development, which typically corresponds to the half-max or T50 time point of the assay."}
{"smiles": "O=C(NC[C@H]1CN(c2ccc(N3CCOCC3=O)cc2)C(=O)O1)c1ccc(Cl)s1", "note": "[Rivaroxaban]", "values": [{"measurement": "fibrin signal with increasing dose", "value": "decreases"}]}
